Molecular target: T1, human 5-HT4(b) receptor (Homo sapiens, UniProt Q13639)
T1 construct: overexpressing the full-length human 5-HT4(b) receptor with an N-terminal FLAG tag; FLAG (N); host or cells: CHO-K1
Test: 5-HT4(b) agonist assay (cAMP accumulation)
Type: cell-based
Details: CHO-K1 cells overexpressing full-length human 5-HT4(b) receptor; cAMP accumulation after 30 minutes at room temperature; 1 μM 5-HT as 100% activity
Procedure: One may determine the activity of the compounds of Formula 1 using a variety of methods, including in vitro and in vivo methods. The ability of the example compounds to activate the 5-HT4(b) receptor may be determined using the following assay.
Chinese hamster ovary (CHO-K1) cells overexpressing the full-length human 5-HT4(b) receptor with an N-terminal FLAG tag (Multispan Inc, Hayward, CA) are cultured per the manufacturer's protocol in 1:1 DMEM/F12 (Thermo Fisher, Waltham, MA) with 10% fetal bovine serum (GE Healthcare, Pittsburgh, PA) and 10 μg/mL puromycin (Thermo Fisher, Waltham, MA), and stored in frozen aliquots to be used as assay ready cells. On the day of the assay, cells are removed from frozen storage, washed two times in 1× Kreb's Ringer Buffer (Zenbio, Research Triangle Park, NC), and re-suspended to a concentration of 4×10^6 cells/mL in 1× Kreb's Ringer Buffer. Test compound (50 nL) in 100% DMSO is acoustically dispensed in low volume, white, 384-well polypropylene plates (Corning, Tewksbury, MA), followed by the addition of 4×10^4 cells per well in a total volume of 10 μL. Cells are incubated with test compound for 30 minutes at room temperature in the dark, and cAMP accumulation is measured using the Cisbio HiRange cAMP assay kit (Bedford, MA) per the manufacturer's protocol. Anti-cAMP antibody and d2-cAMP tracer reagents diluted in lysis/detection buffer are incubated in the dark for 1 hour, and results are measured on a Pherastar plate reader (BMG Labtech, Ortenberg, Germany). Data are normalized using 1 μM 5-HT (Sigma Aldrich, St. Louis, MO) as 100% activity, and DMSO alone as 0% activity.
The ability of the example compounds to activate the 5-HT4(b) receptor was evaluated using the assay described in the Biological Activity section. Table 1, below, lists EC50 from the 5-HT4(b) agonist assay for each of the example compounds, where smaller EC50 values represent higher potency.

T1 sequence (Q13639 whole entry): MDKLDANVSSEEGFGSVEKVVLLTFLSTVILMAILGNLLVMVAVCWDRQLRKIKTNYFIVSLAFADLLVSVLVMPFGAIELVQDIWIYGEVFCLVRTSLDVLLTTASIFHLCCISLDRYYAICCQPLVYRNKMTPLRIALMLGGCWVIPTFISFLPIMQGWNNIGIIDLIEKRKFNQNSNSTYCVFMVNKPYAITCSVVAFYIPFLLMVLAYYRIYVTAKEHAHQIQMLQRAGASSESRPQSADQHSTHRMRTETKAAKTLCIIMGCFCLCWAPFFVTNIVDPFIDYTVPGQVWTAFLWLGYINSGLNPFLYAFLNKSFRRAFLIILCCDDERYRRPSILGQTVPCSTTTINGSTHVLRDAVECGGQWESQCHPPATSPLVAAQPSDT

Structure (SMILES)	EC50 [nM]
COc1cc(N)c(Cl)cc1C(=O)N[C@@H]1CCN(CCCCCC(=O)NCCCC(=O)NC[C@H](O)[C@@H](O)[C@H](O)[C@H](O)CO)C[C@@H]1OC [Example 4, 4-amino-5-chloro-2-methoxy-N-((3S,4R)-3-methoxy-1-(6-oxo-6-((4-oxo-4-(((2S,3R,4R,5R)-2,3,4,5,6-pentahydroxyhexyl)amino)butyl)amino)hexyl)piperidin-4-yl)benzamide]	28.6
CO[C@H]1CN(CCCCCC(=O)NCCCCCC(=O)NC[C@H](O)[C@@H](O)[C@H](O)[C@H](O)CO)CC[C@H]1NC(=O)c1cc(Cl)c(N)c2c1OCC2 [Example 45, 4-amino-5-chloro-N-((3S,4R)-3-methoxy-1-(6-oxo-6-((6-oxo-6-(((2S,3R,4R,5R)-2,3,4,5,6-pentahydroxyhexyl)amino)hexyl)amino)hexyl)piperidin-4-yl)-2,3-dihydrobenzofuran-7-carboxamide]	12.1
COc1cc(N)c(Cl)cc1C(=O)N[C@@H]1CCN(CCCCCC(=O)N[C@@H]2CCCN(CCCCCCCC(=O)NC[C@H](O)[C@@H](O)[C@H](O)[C@H](O)CO)C2)C[C@@H]1OC [Example 12, 4-amino-5-chloro-2-methoxy-N-((3S,4R)-3-methoxy-1-(6-oxo-6-(((R)-1-(8-oxo-8-(((2S,3R,4R,5R)-2,3,4,5,6-pentahydroxyhexyl)amino)octyl)piperidin-3-yl)amino)hexyl)piperidin-4-yl)benzamide]	14.6
COc1cc(N)c(Cl)cc1C(=O)N[C@@H]1CCN(CCCCCC(=O)N(C)C2CCN(CCCCCC(=O)NC[C@H](O)[C@@H](O)[C@H](O)[C@H](O)CO)CC2)C[C@@H]1OC [Example 11, 4-amino-5-chloro-2-methoxy-N-((3S,4R)-3-methoxy-1-(6-(methyl(1-(6-oxo-6-(((2S,3R,4R,5R)-2,3,4,5,6-pentahydroxyhexyl)amino)hexyl)piperidinyl)amino)-6-oxohexyl)piperidin-4-yl)benzamide]	14.2
COc1cc(N)c(Cl)cc1C(=O)N[C@@H]1CCN(CCCCCC(=O)NCCCCCCCC(=O)N(CCO)C[C@H](O)[C@@H](O)[C@H](O)[C@H](O)CO)C[C@@H]1OC [Example 22, 4-amino-5-chloro-N-((3 S,4R)-1-(6-((8-((2-hydroxyethyl)((2S,3R,4R,5R)-2,3,4,5,6-pentahydroxyhexyl)amino)-8-oxooctyl)amino)-6-oxohexyl)-3-methoxypiperidin-4-yl)-2-methoxybenzamide]	19.1
COc1cc(N)c(Cl)cc1C(=O)N[C@@H]1CCN(CCCCCC(=O)NCCCCCCCC(=O)NC[C@H](O)[C@@H](O)[C@H](O)[C@H](O)CO)C[C@@H]1OC [Example 2, 4-amino-5-chloro-2-methoxy-N-((3S,4R)-3-methoxy-1-(6-oxo-6-((8-oxo-8-(((2S,3R,4R,5R)-2,3,4,5,6-pentahydroxyhexyl)amino)octyl)amino)hexyl)piperidin-4-yl)benzamide]	21.4

The next compounds have a lower EC50 than those just listed; values first:

EC50 [nM]	Structure (SMILES)
3.1	CO[C@H]1CN(CCCCCC(=O)NCCCCCCCC(=O)NC[C@H](O)[C@@H](O)[C@H](O)[C@H](O)CO)CC[C@H]1NC(=O)c1cc(Cl)c(N)c2c1OCC2 [Example 44, 4-amino-5-chloro-N-((3S,4R)-3-methoxy-1-(6-oxo-6-((8-oxo-8-(((2S,3R,4R,5R)-2,3,4,5,6-pentahydroxyhexyl)amino)octyl)amino)hexyl)piperidin-4-yl)-2,3-dihydrobenzofuran-7-carboxamide]
2	Nc1c(Cl)cc(C(=O)NCC2CCN(CC3CCN(CCCCCCC(=O)NC[C@H](O)[C@@H](O)[C@H](O)[C@H](O)CO)CC3)CC2)c2c1CCO2 [Example 37, 4-amino-5-chloro-N-((1-((1-(7-oxo-7-(((2S,3R,4R,5R)-2,3,4,5,6-pentahydroxyhexyl)amino)heptyl)piperidin-4-yl)methyl)piperidin-4-yl)methyl)-2,3-dihydrobenzofuran-7-carboxamide]
5.9	CO[C@H]1CN(CCCCCC(=O)NCCCC(=O)NC[C@H](O)[C@@H](O)[C@H](O)[C@H](O)CO)CC[C@H]1NC(=O)c1cc(Cl)c(N)c2c1OCC2 [Example 46]
1.2	Nc1c(Cl)cc(C(=O)NCC2CCN(CC3CCN(C(=O)CCCCCCCCCCC(=O)NC[C@H](O)[C@@H](O)[C@H](O)[C@H](O)CO)CC3)CC2)c2c1CCO2 [Example 38, 4-amino-5-chloro-N-((1-((1-(12-oxo-12-(((2S,3R,4R,5R)-2,3,4,5,6-pentahydroxyhexyl)amino)dodecanoyl)piperidin-4-yl)methyl)piperidin-4-yl)methyl)-2,3-dihydrobenzofuran-7-carboxamide]
3.7	Nc1c(Cl)cc(C(=O)NC2CCN(CCCCCC(=O)NC3CCN(CCCCCCCC(=O)NC[C@H](O)[C@@H](O)[C@H](O)[C@H](O)CO)CC3)CC2)c2c1CCO2 [Example 30, 4-amino-5-chloro-N-(1-(6-oxo-6-((1-(8-oxo-8-(((2S,3R,4R,5R)-2,3,4,5,6-pentahydroxyhexyl)amino)octyl)piperidin-4-yl)amino)hexyl)piperidin-4-yl)-2,3-dihydrobenzofuran-7-carboxamide]

From US12653815B2, “Luminally-acting N-(piperidin-4-yl)benzamide derivatives” (Takeda Pharmaceutical Company Limited, priority 2020, dated 2026)
